This note sets out measurements from US10093642B2, “Multitarget hedgehog pathway inhibitors and uses thereof” (UNIVERSITA' DEGLI STUDI DI SIENA, priority 2013, dated 2018).

For test [1], the system named is Cancer stem cells (CSCs) isolated from murine Ptch+/− MB. The test is described as follows: Neurosphere forming assay (self-renewal of MB CSCs). The class given is cell-based. The settings on record: seven days of treatment; KAAD 1 μM as comparator. Here is the method: FIG. 14. […] After seven days of treatment the number of secondary neurospheres derived from a known number of single cells was counted. The self-renewal CSCs capability is expressed as percentage of neurospheres forming cells.
Hh activity preferentially associates to stemness features. For this reason, the Hh pathway antagonist Glabrescione B has also been investigated for its ability to modulate the behavior of MB cancer stem cells (CSCs).
Another experiment was carried out to determine the ability of Glabrescione B to suppress MB CSCs self-renewal. To this aim neurospheres derived from murine Ptch^+/− MB were treated with Glabrescione B at different concentrations and the percentage of neurospheres-forming cells was measured. For the neurosphere forming assay, cells were plated at clonal density (1-2 cells/mm2) into 96-well plates and cultured in selective medium as described above.
The results shown in FIG. 14 indicate that Glabrescione B has an inhibitory effect on self-renewal of cancer stem cells.

For a further test, the system named is Gli1-GST fusion protein. The test is described as follows: NMR relaxation speed of Glabrescione B protons in presence of Gli1-GST. The class given is binding. The settings on record: 0.412 mM. Here is the method:
A sample of Glabrescione B 0.412 mM in DMSO-d6 was prepared and added to 20 μL of a solution of Gli1-GST (Glutathione S-transferase) fusion protein at 5 μg/μL, providing a molar ratio of Glabrescione B/Gli1-GST of 150:1. […] In experimental conditions, Glabrescione B protons experiencing the most significant perturbation of the relaxation speed, due to the presence of Gli1-GST, belong to the ring A of the isoflavone nucleus, namely aromatic protons H1, H3 and those belonging to methoxyl groups 2′ and 4′.

For a further test, the system named is ASZ001 BCC allografts. The test is described as follows: ASZ001 BCC allograft in NOD/SCID mice. The class given is in vivo. The settings on record: 100 μmol/Kg, 18 days. An excerpt:
FIG. 18. Glabrescione B inhibits Gli1-dependent BCC tumor growth in vivo. (ASZ001 BCC allografts). (A) Change of tumor volume during Glabrescione B (GlaB) or vehicle (CTR) treatment period (18 days). […] (C) qRT-PCR of Gli1 and Ptch1 mRNA. Shown is the mean±SD of tumor (n=6) for each treatment. *P<0.05 vs CTR.
Therefore, to verify the Glabrescione B efficacy to inhibit Hh-dependent tumor cell growth in vivo, we turned to an allograft model of MB cells. Spontaneous Medulloblastomas from Ptch1^+/− mice were isolated, minced, pipetted to obtain a single-cell suspension and grafted s.c. at the posterior flank of female BALB/c nude mice (nu/nu) (Charles River Laboratories, Lecco, Italy). Tumors were grown until a median size of ˜100 mm^3. Animals were randomly divided into two groups (n=6) and treated with solvent only (2-hydroxypropyl-β-cyclodextrin:ethanol, 3:1) or Glabrescione B in solvent (75 μmol/Kg) for 18 days (2-hydroxypropyl-β-cyclodextrin was purchased from Sigma Aldrich, St. Louis, Mo., USA). 2×10^6 ASZ001 BCC cells were resuspended in an equal volume of 154CF medium and Matrigel (BD Biosciences, Heidelberg, Germany) and injected s.c. at the posterior flank of female NOD/SCID mice (Charles River Laboratories, Lecco, Italy), as previously described (Eberl et al, 2012). […] Tumor volumes change was calculated by the formula length×width×0.5×(length+width) (Lauth et al, 2007). […]

Structures are written as SMILES.

In the case of `COc1cc(OC)c2c(=O)c(-c3ccc(OCC=C(C)C)c(OCC=C(C)C)c3)coc2c1` [Glabrescione B, 3-(3′,4′-bis(3-methylbut-2-enyloxy)phenyl)-5,7-dimethoxy-4H-chromen-4-one], the “MB CSCs self-renewal (percentage of neurospheres-forming cells)” value in test [1] is recorded as “suppressive effect on MB CSCs self-renewal”. In addition, the “Normalized relaxation speed ΔR/Rf, GlaB:Gli1-GST 1:150” value came to 0.341 with Gli1-GST fusion protein (proton 1); 0.267 in the test with Gli1-GST fusion protein (proton 2′); 0.206 in the test with Gli1-GST fusion protein (proton 3); 0.482 with Gli1-GST fusion protein (proton 4′); 0.028 with Gli1-GST fusion protein (proton 8); 0.286 with Gli1-GST fusion protein (proton 11). Besides, the figures for the “Normalized relaxation speed ΔR/Rf, GlaB:Gli1-GST 1:150” value in the test with Gli1-GST fusion protein (proton 12), in the test with Gli1-GST fusion protein (proton 15) and with Gli1-GST fusion protein (proton 19) were 0, 0.329 and 0, respectively. In the test with ASZ001 BCC allografts, the “Gli1 mRNA levels in tumors” value is “significant reduction”. Further, the tumor growth result with ASZ001 BCC allografts was “significant reduction of tumor growth”.
